Laboratory results from patent publication US20240350418A1, “LIPID-BASED COMPOSITION FOR ORAL ADMINISTRATION OF BRADYKININ B2-RECEPTOR ANTAGONISTS” (PHARVARIS GMBH, priority 2021, published 2024).

Tests used:
[1] = target: T1, human B2 receptor (Homo sapiens, UniProt P30411); experiment: In vitro pharmacology testing, antagonist potency; assay type: biochemical
T1 sequence (P30411 1-391): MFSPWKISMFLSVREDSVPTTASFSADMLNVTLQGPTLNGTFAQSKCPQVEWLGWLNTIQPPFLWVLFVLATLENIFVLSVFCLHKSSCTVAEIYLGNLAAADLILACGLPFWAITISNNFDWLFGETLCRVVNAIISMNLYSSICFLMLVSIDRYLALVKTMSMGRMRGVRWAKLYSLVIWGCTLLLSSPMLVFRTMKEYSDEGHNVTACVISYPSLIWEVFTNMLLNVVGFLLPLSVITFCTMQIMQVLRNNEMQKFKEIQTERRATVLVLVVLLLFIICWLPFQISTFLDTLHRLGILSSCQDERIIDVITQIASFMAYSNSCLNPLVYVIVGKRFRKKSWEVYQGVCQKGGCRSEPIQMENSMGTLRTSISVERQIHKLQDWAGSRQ

[2] = tested on: monkey B2 receptor; experiment: In vitro pharmacology testing, antagonist potency; assay type: biochemical
[3] = target: T2, dog B2 receptor (Canis lupus familiaris, UniProt Q9BDQ4); experiment: In vitro pharmacology testing, antagonist potency; assay type: biochemical
T2 sequence (Q9BDQ4 1-392): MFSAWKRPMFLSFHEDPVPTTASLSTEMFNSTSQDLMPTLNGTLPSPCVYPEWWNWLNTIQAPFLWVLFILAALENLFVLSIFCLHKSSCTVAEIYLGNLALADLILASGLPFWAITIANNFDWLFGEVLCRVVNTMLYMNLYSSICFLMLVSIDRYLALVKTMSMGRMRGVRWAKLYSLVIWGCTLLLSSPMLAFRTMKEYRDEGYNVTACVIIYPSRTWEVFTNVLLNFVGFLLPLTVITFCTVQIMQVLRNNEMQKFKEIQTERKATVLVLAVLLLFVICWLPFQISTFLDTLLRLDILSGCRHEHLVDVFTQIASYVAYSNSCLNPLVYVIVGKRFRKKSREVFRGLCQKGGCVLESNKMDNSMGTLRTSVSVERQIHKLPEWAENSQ

[4] = target: T3, rat B2 receptor (Rattus norvegicus, UniProt P25023); experiment: In vitro pharmacology testing, antagonist potency; assay type: biochemical
T3 sequence (P25023 1-396): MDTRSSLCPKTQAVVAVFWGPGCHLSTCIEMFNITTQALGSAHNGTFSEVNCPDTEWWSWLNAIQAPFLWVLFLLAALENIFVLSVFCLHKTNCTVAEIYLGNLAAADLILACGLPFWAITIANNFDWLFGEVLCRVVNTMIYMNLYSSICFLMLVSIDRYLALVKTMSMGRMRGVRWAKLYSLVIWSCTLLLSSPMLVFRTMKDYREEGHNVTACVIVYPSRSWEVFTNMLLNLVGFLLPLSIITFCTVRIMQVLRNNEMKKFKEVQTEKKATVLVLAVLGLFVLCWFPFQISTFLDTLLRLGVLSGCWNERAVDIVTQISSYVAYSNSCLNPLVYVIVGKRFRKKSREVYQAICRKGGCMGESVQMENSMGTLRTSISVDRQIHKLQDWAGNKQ

[5] = target: T4, mouse B2 receptor (Mus musculus, UniProt P32299); experiment: In vitro pharmacology testing, antagonist potency; assay type: biochemical
T4 sequence (P32299 1-392): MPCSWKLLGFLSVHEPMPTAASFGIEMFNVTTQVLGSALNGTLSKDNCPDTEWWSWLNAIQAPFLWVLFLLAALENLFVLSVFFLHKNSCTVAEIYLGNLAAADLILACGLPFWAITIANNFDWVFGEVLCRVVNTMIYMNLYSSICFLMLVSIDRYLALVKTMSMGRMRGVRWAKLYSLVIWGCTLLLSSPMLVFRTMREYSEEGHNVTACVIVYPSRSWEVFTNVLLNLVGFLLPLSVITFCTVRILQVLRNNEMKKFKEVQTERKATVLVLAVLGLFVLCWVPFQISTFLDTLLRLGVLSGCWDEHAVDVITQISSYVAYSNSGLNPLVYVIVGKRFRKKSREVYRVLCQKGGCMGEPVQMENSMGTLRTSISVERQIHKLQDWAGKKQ

[6] = Single dose pharmacokinetic study in monkeys; assay type: in vivo, Cynomolgus monkeys; details: after administration, except one animal treated with the Test Formulation
Experimental: The pharmacokinetic properties of a liquid composition according to the invention after a single oral administration in Cynomolgus monkeys was studied and compared with those of a suspension of the same API in an aqueous carrier comprising methylcellulose (1 wt. %). The Test Formulation was based on composition E of Example 1, except that the concentration of the API was 5 mg/mL in essentially the same liquid vehicle as composition E. The Comparative Formulation comprised the same API at a concentration of 2 mg/mL, formulated as an aqueous drug suspension further comprising methylcellulose (1 wt %). […]
The pharmacokinetic parameters were determined from the individual plasma concentrations by non-compartmental analysis, using Kinetica™ 4.4.1 (Thermo Fisher). […]
Maximum plasma concentration (Cmax), sampling time of Cmax (Tmax), and sampling time of the last plasma concentration >LLOQ (Tlast) parameters were determined from the observations. The area under the plasma concentration-time curve from the time of dosing to the last quantifiable concentration was calculated using the linear up/logarithmic down trapezoidal rule (AUClast). At least 3 consecutive quantifiable concentrations had to be available for AUC calculation. […]
The percentage of extrapolated AUC from Tlast to infinity was calculated by Kinetica™ 4.4.1, using the following equation: […]

[7] = target: T5, bradykinin B2 receptor (Homo sapiens, UniProt P30411); experiment: Estimated therapeutic efficacious threshold plasma concentration; assay type: in vivo
T5 sequence (P30411 1-391): T1 sequence (P30411 1-391)

## [2H][C@@](C)(NC(=O)COC(F)F)c1cc(F)cc(Cl)c1COc1cccc2c(-c3ncnn3C)cc(C)nc12 [API, (S)-N-(1-deutero-1-(3-chloro-5-fluoro-2-((2-methyl-4-(1-methyl-1H-1,2,4-triazol-5-yl)quinolin-8-yloxy)methyl)phenyl)ethyl)-2-(difluoromethoxy)acetamide monohydrate]
[1]
  antagonist potency: high antagonist potency
[2]
  antagonist potency: high antagonist potency
[3]
  antagonist potency: low antagonist potency
[4]
  antagonist potency: low antagonist potency
[5]
  antagonist potency: low antagonist potency
[6]
  time up to which API plasma concentrations were quantifiable: up to 24 hours
[7]
  estimated EC50 (therapeutic efficacious threshold plasma concentration): 2.4 ng/mL
  estimated EC85 (therapeutic efficacious threshold plasma concentration): 13.8 ng/mL
